We go through six substances from PMC9965520, “An Efficient Peptidomics Screening for Exogenous Substrates and Inhibitory Peptides of the Dipeptidase ACE from Milk Hydrolysate” (Pharmaceutics, 2023).

No end group written: not given here.

The data set concerns the target T1, ACE (Oryctolagus cuniculus, UniProt P12822).
T1 sequence (P12822 34-1310): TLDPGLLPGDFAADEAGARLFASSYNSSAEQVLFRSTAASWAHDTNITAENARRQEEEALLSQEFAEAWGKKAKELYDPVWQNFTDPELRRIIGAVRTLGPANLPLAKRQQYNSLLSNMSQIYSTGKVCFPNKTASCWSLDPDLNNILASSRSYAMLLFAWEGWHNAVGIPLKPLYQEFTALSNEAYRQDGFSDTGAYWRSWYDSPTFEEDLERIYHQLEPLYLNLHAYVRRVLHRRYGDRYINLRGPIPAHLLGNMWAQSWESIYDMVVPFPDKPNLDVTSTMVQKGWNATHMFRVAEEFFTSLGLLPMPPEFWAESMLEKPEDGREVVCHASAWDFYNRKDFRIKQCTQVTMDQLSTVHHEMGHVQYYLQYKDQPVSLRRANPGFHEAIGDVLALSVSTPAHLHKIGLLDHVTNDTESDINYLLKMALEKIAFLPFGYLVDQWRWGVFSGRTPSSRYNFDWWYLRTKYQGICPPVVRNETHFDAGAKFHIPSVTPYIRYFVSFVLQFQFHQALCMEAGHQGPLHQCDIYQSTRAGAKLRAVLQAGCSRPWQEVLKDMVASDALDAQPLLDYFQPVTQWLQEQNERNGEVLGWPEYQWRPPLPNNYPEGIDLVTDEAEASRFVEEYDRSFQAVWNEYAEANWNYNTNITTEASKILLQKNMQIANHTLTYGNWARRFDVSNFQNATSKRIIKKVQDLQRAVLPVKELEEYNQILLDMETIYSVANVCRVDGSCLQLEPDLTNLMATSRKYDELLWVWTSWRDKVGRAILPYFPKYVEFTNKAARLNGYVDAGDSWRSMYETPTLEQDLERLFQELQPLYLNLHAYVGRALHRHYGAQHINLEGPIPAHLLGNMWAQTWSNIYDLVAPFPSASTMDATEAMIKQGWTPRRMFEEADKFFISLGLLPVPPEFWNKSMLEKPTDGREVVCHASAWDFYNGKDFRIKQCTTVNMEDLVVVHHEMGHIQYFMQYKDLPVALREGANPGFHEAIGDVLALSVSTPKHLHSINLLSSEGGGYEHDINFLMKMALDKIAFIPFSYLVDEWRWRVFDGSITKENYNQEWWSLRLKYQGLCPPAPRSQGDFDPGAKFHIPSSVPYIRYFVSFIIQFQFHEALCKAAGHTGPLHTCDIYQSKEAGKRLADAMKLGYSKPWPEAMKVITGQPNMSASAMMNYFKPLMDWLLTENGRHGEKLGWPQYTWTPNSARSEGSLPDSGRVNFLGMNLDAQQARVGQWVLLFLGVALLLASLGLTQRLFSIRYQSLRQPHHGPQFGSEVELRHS
In words: ACE pre-incubation of milk hydrolysate peptide libraries, stable-isotope dimethyl labeling and LC-MS/MS (D/H ratio). It is filed as in vitro ADME, rabbit. On the set-up: ACE (EC 3.4.15.1, 1 unit) from rabbit lungs; purchased Sigma Chemical Co. (St. Louis, MO, USA); host or cells: rabbit lungs (tissue-derived enzyme). To be noted: milk hydrolysate peptide library (<3 kDa); ACE-treated (0.05 mU/μL ACE, borate buffer, 37 °C, 3 h: 1.5 h static + 1.5 h 200 rpm; D-labeled) versus untreated (H-labeled) peptide; intensity ratio in LC-MS; <1 = hydrolysed by ACE. Here is the method: The peptide libraries (200 μg) dissolved in borate buffer were equally divided into two parts, one was without any treatment (control group); the other part (experimental group) was incubated with 0.05 mU/μL ACE at 37℃ for 1.5 h statically, followed by gentle shaking at 200 rpm for another 1.5 h, and then the ACE reaction was quenched using 60 μL of 1N HCl. After lyophilization, both samples were redissolved in 100 μL of 0.1M sodium acetate and modified using stable-isotope dimethyl labeling according to the previous study with slight modifications. Briefly, the control group (without ACE incubation) had 4 μL of formaldehyde (37% solution in H2O) and 1 M NaBH3CN (10 μL) added to it; the experimental group had 20% formaldehyde-d2 (8 μL) and 1M NaBH3CN (10 μL) added to it. After 1h, 5 μL of ammonia (28% solution in H2O) were added individually to both groups to stop the reaction. The experimental group and the control group were combined and desalted using the PepClean™C18 spin column. The resulting peptide mixture was lyophilized and kept at −20 °C prior to LC-MS/MS analysis. Formaldehyde is known to the state of California to cause cancer; special caution was taken including the use of surgical gloves and a fume hood when formaldehyde was handled.
The combined mixture re-dissolved in 5% ACN containing 0.1% formic acid was separated using an Ultimate 3000 RSLC system (Dionex, Sunnyvale, CA, USA) coupled with a C18 column (Acclaim PepMap RSLC, 75 μm × 150 mm, Thermo Scientific, Waltham, Middlesex, MA, USA) and analyzed with a Thermo Q-ExactiveTM mass spectrometer (Thermo Scientific Inc., Waltham, Middlesex, MA, USA). The elution solution was composed of mobile phase A (0.1% formic acid in water) and B (0.1% formic acid in 95% acetonitrile). The elution gradient was arranged as follows: (i) isocratic elution using 1% B in the first 5.5 min for sample loading, (ii) linear gradient from 1% to 60% B in the next 39.5 min, (iii) linear gradient from 60% to 80% B in the following 10 min, and finally (iv) isocratic elution using 1% solution B for 10 min. The flow rate applied in the LC separation was maintained at 250 µL/min. The separated peptides were analyzed and quantified using Q-ExactiveTM mass spectrometry which was operated in the data-dependent mode and switched automatically between MS and HCD-MS2. A full MS scan was carried out in a 100 and 1500 m/z range, and the 14 ions of the highest intensities were selected for MS/MS scans. The RAW data were converted to the MGF file format followed by database-assisted sequencing with PEAKS DB using PEAKS Studio X (Bioinformatics Solutions Inc., Waterloo, ON, Canada). The parameters used for peptide identification were listed as follows: (1) Database: UniProt_SwissProt (Bos taurus); (2) Enzyme: pepsin, trypsin, α-chymotrypsin, or GI (the combination of these three proteases); (3) Type of enzyme: Unspecific; (4) Instrument: Orbitrap; (5) Parent mass error tolerance: 20 ppm; (6) Fragment mass error tolerance: 0.6 Da; (7) Variable modifications: Dimethyl (K), Dimethyl (N-term), Dimethyl:2H(4) (K), and Dimethyl:2H(4) (N-term) were used for identification and quantitative analysis. The sequence identified through the database was validated by manually matching with the MS/MS spectrum in the raw data. In addition to MS/MS analysis coupled with PEAKS studio, the ACE’s substrate candidates were further confirmed using the synthetic peptides with corresponding sequences by comparison with their LC retention times, m/z values, and MS/MS spectra. The relative abundances of hydrogen (H) and deuterium (D) labeled peptides were quantified based on the peak areas in their corresponding selective ion chromatograms (SIC). The D/H ratio of identified peptide with the same sequence was further examined by their relative signal intensities in MS spectrum. Theoretically, the D/H ratio of the isobaric pair should stay at 1 if the peptide will not react with ACE. […]
Turning to AYFYPELFR [AR-9], the “D/H Ratio” value was found to be 0.19.
The same measure for FFVAPFPEVF [FF-10]: 0.87; for HLPLPLLQSW [HW-10]: 0.12; for LHLPLPLL [LL-8]: 0.74.
The same measure for LVYPFPGPIHNSL [LL-13]: 0.26; for YVPLGTQ [YQ-7]: 0.33.
